How the values were obtained:
[1] = Solid stability assay of crystal form A (XRPD); type: physicochemical
Text: The sample was spread into a thin layer. For the samples placed under conditions of high temperature and high humidity, the vial mouth was sealed with aluminum foil, and some small holes were punched in the aluminum foil to ensure that the samples were fully in contact with the ambient air. For the samples placed under condition of strong light, the vial mouth was sealed with aluminum foil, and some small holes were punched in the aluminum foil. Samples placed under different conditions were sampled and tested (XRPD) on day 5 and day 10, respectively. The assay results were compared with the initial assay results on day 0.
Each medicinal low-density polyethylene bag was tied tightly with a tie, and then was placed into a single-layer aluminum foil bag. The single-layer aluminum foil bag was then heat-sealed. Finally, the samples were stored in plastic buckets and stored in a chamber with constant temperature and humidity. The packaging used in the stability assay simulated the material storage packaging. The material was divided into 1.5 g/package as stability samples under red light. Each sample was packaged in the same way and labeled with a stability sample label. The samples placed under different conditions were sampled and tested (XRPD) in the 3rd and 6th months. The assay results were compared with the initial assay results on day 0.

[2] = Pharmacokinetics of crystal form A by oral administration in SD rats; type: in vivo; conditions: male, rat, plasma, 92.3 mg/kg, suspension in 0.5% methylcellulose
Protocol: Male SD rats aged 7 to 10 weeks were selected, and administered candidate compound solution orally. Whole blood was collected for a certain period of time, and prepared to obtain plasma. Drug concentration was analyzed by LC-MS/MS method, and pharmacokinetic parameters were calculated by Phoenix WinNonlin software (Pharsight, USA).

[3] = Pharmacokinetics by oral administration in beagle dogs; type: in vivo; conditions: male, dog, plasma, 24.5 mg/kg, 0.5% methylcellulose
Protocol: 680.397 mg of assay compound powder was accurately weighed, and 50 mL of 0.500 methylcellulose (400 viscosity) aqueous solution was added. The mixture was stirred for 10 minutes, and sonicated for 10 minutes. 50 mL of 0.5% o methylcellulose (400 viscosity) aqueous solution was added, and homogenized for 10 minutes using a homogenizer. 11 mL of 0.5% o methylcellulose (400 viscosity) aqueous solution was added. The mixture was sonicated for 5 minutes and stirred for 10 minutes. 358 μL of 0.5% o methylcellulose (400 viscosity) aqueous solution was added and stirred for 2 minutes. Male beagle dogs aged over six months were selected, and administered candidate compound solution orally. Whole blood was collected for a certain period of time, and prepared to obtain plasma. Drug concentration was analyzed by LC-MS/MS method, and pharmacokinetic parameters were calculated by Phoenix WinNonlin software (Pharsight, USA). The results of the assay are shown in Table 14: […]

[4] = read-out: Area under the plasma concentration-time curve, AUC0-last
[5] = read-out: Peak concentration, Cmax

For `C=C(F)C(=O)N1CCN(c2nc(OC[C@@]34CCCN3C[C@H](F)C4)nc3c2CO[C@H](c2c(F)c(N)cc(C)c2C(F)(F)F)C3)C[C@@H]1CC#N`, the Crystal form ([1]; 25 ± 2° C./60 ± 5% relative humidity, 3 months) was “Crystal form A”, the Crystal form ([1]; 25 ± 2° C./60 ± 5% relative humidity, 6 months) was “Crystal form A” and the Crystal form ([1]; 40 ± 2° C./75 ± 5% relative humidity, 3 months) was “Crystal form A”. For the same compound, the Crystal form ([1]; 40 ± 2° C./75 ± 5% relative humidity, 6 months) was “Crystal form A”, the Crystal form ([1]; High humidity (25° C./relative humidity 92.5%, unsealed), 5 days) was “Crystal form A” and the Crystal form ([1]; High humidity (25° C./relative humidity 92.5%, unsealed), 10 days) was “Crystal form A”. The Crystal form ([1]; High temperature (60° C., unsealed), 5 days) was “Crystal form A”, the Crystal form ([1]; High temperature (60° C., unsealed), 10 days) was “Crystal form A” and the Crystal form ([1]; Light control, 5 days) was “Crystal form A”. The Crystal form ([1]; Light control, 10 days) was “Crystal form A”, the solid stability ([1]; high temperature, high humidity, strong light, long-term and accelerated experiments) was “good stability” and the Crystal form ([1]; initial, 0 day (XRPD)) was “Crystal form A”. The AUC(0-t) [2, 4] was 11.5 µM·h, the Cmax [2, 5] was 1400 nM and the Tmax ([2]; read-out: Time-to-peak, Tmax) was 5.33 h. For the same compound, the AUC(0-t) [3, 4] was 16.7 µM·h, the Cmax [3, 5] was 2440 nM and the Tmax ([3]; read-out: Time-to-peak, Tmax) was 2.5 h.

Reference: patent publication US20250129102A1, “CRYSTAL FORM OF PYRIMIDINE HETEROCYCLIC COMPOUND AND PREPARATION METHOD THEREFOR” (D3 Bio (Wuxi) Co., Ltd., priority 2021, published 2025)
